Measured values published in the kinase profiling compilation of Christmann-Franck et al. (2016).

Key:
Test in all cases: radiometric filter-binding kinase assay, Kinase HotSpot
Details in all cases: compound 0.5 µM; ATP 10 µM
AKT2 (human) = AKT2 (human) (UniProt P31751)
ALK (human) = ALK (human) (UniProt Q9UM73)
BRSK1 (human) = BRSK1 (human) (UniProt Q8TDC3)
CDK5 CDK5R1 p35 (human) = CDK5 CDK5R1 p35 (human) (UniProt Q00535+Q15078)
CDK6 CCND1 (human) = CDK6 CCND1 (human) (UniProt Q00534+P24385)
CDK9 CCNT1 (human) = CDK9 CCNT1 (human) (UniProt P50750+O60563)
CSNK1G1 (human) = CSNK1G1 (human) (UniProt Q9HCP0)
Chain of CSNK1G1 (human) (Q9HCP0 whole entry, looked up): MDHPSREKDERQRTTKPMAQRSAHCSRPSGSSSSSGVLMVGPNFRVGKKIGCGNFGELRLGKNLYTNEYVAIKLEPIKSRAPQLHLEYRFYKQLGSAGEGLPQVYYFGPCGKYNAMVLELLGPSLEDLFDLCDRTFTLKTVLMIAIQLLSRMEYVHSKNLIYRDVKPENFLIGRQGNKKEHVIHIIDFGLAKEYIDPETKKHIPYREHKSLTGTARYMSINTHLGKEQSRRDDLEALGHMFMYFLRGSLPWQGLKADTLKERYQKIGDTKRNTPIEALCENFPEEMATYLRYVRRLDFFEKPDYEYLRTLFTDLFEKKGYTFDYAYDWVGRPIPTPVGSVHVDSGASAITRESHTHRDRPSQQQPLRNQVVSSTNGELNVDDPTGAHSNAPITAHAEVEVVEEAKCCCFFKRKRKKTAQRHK

FES (human) = FES (human) (UniProt P07332)
FGFR1 (human) = FGFR1 (human) (UniProt P11362)
[1] = tested on: FLT4 (human), P35916 [Q890H]
GRK6 (human) = GRK6 (human) (UniProt P43250)
GSG2 (human) = GSG2 (human) (UniProt Q8TF76)
GSK3A (human) = GSK3A (human) (UniProt P49840)
Chain of GSK3A (human) (P49840 whole entry, looked up): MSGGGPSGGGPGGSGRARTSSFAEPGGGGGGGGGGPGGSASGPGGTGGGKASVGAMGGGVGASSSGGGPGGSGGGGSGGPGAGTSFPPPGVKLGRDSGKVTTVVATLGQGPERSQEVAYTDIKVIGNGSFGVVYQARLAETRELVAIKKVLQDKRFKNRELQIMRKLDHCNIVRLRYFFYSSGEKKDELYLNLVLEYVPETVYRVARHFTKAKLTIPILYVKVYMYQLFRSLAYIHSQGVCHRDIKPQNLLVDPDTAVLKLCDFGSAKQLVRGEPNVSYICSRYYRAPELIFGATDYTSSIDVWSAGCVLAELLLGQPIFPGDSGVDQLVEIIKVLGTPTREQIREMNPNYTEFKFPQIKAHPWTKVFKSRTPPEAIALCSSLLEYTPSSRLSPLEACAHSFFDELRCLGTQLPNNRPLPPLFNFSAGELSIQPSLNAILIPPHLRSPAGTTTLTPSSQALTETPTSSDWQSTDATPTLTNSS

IGF1R (human) = IGF1R (human) (UniProt P08069)
LTK (human) = LTK (human) (UniProt P29376)
MAP2K1 (human) = MAP2K1 (human) (UniProt Q02750)
MAP2K2 (human) = MAP2K2 (human) (UniProt P36507)
MAP3K11 (human) = MAP3K11 (human) (UniProt Q16584)
MAPK13 (human) = MAPK13 (human) (UniProt O15264)
MST1R (human) = MST1R (human) (UniProt Q04912)
NEK3 (human) = NEK3 (human) (UniProt P51956)
NEK6 (human) = NEK6 (human) (UniProt Q9HC98)
Chain of NEK6 (human) (Q9HC98 whole entry, looked up): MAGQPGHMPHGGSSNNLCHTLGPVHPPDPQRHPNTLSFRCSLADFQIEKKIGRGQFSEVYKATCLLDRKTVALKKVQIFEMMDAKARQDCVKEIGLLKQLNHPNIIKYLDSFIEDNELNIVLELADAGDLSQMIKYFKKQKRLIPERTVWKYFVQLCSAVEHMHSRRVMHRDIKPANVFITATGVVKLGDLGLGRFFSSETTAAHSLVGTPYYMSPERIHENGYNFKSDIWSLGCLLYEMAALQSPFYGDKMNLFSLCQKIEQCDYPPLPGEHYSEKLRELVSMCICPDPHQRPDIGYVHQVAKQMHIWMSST

NTRK2 (human) = NTRK2 (human) (UniProt Q16620)
PIM2 (human) = PIM2 (human) (UniProt Q9P1W9)
PIM3 (human) = PIM3 (human) (UniProt Q86V86)
PRKCA (human) = PRKCA (human) (UniProt P17252)
PRKD3 (human) = PRKD3 (human) (UniProt O94806)
RPS6KA3 KD1 KD2 (human) = RPS6KA3 KD1 KD2 (human) (UniProt P51812)
Chain of RPS6KA3 KD1 KD2 (human) (P51812 whole entry, looked up): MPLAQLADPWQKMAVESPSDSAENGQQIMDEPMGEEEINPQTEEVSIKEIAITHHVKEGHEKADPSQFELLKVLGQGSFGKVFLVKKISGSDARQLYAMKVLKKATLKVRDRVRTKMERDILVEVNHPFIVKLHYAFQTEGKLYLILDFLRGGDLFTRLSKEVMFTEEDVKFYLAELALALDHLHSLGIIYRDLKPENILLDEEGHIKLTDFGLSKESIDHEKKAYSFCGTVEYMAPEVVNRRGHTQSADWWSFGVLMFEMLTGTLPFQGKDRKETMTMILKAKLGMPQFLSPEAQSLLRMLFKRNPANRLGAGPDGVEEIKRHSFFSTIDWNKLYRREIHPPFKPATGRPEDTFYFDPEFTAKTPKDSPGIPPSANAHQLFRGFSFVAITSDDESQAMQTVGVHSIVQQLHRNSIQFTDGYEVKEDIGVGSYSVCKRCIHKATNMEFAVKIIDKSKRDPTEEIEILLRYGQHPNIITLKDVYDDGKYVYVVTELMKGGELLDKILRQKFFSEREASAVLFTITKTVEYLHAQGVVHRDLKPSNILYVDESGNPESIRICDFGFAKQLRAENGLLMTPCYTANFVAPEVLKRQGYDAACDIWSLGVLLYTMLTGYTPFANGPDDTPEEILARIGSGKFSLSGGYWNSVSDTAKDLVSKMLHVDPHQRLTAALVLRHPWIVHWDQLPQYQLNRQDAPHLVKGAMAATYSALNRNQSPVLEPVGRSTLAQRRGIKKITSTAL

RPS6KA5 KD2 (human) = RPS6KA5 KD2 (human) (UniProt O75582)
SIK2 (human) = SIK2 (human) (UniProt Q9H0K1)
STK16 (human) = STK16 (human) (UniProt O75716)
STK17A (human) = STK17A (human) (UniProt Q9UEE5)
Chain of STK17A (human) (Q9UEE5 whole entry, looked up): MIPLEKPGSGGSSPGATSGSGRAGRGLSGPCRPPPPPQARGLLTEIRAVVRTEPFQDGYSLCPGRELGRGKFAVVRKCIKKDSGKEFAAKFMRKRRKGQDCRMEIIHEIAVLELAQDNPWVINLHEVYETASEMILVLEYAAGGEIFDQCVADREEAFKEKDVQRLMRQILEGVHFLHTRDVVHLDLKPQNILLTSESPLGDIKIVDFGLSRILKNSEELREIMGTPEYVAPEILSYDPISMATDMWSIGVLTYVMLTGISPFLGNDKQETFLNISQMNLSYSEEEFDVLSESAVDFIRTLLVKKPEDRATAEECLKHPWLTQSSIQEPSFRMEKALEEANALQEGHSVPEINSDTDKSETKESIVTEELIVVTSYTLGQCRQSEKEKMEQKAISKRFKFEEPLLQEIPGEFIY

STK25 (human) = STK25 (human) (UniProt O00506)
STK33 (human) = STK33 (human) (UniProt Q9BYT3)
STK4 (human) = STK4 (human) (UniProt Q13043)
TAOK2 (human) = TAOK2 (human) (UniProt Q9UL54)
TNK2 (human) = TNK2 (human) (UniProt Q07912)
Chain of TNK2 (human) (Q07912 whole entry, looked up): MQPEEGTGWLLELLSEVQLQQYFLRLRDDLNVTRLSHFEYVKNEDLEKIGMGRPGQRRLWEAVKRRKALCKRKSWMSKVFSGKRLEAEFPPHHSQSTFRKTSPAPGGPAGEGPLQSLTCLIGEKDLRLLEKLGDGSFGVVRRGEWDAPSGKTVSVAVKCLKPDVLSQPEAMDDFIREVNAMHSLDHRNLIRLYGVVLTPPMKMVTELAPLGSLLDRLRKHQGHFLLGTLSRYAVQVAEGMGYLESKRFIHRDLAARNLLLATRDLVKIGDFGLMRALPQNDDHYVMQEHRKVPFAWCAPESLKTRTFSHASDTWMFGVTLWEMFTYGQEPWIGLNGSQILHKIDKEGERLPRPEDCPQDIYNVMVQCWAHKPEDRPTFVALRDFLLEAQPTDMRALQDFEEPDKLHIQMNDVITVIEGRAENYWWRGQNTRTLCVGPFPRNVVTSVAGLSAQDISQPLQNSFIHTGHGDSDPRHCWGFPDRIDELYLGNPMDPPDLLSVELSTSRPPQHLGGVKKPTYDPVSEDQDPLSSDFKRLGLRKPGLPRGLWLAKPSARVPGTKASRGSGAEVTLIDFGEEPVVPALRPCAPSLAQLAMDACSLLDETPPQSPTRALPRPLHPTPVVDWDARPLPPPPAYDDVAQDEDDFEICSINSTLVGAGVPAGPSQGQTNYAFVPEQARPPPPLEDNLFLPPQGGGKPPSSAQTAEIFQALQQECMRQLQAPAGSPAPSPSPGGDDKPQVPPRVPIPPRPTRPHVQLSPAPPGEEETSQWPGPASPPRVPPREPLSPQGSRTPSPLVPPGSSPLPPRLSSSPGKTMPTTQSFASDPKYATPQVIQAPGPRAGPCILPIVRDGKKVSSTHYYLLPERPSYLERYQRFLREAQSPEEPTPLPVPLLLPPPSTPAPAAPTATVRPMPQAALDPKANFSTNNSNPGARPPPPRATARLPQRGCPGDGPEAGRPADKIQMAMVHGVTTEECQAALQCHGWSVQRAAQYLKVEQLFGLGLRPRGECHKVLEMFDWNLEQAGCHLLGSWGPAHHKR

TSSK1B (human) = TSSK1B (human) (UniProt Q9BXA7)
Chain of TSSK1B (human) (Q9BXA7 whole entry, looked up): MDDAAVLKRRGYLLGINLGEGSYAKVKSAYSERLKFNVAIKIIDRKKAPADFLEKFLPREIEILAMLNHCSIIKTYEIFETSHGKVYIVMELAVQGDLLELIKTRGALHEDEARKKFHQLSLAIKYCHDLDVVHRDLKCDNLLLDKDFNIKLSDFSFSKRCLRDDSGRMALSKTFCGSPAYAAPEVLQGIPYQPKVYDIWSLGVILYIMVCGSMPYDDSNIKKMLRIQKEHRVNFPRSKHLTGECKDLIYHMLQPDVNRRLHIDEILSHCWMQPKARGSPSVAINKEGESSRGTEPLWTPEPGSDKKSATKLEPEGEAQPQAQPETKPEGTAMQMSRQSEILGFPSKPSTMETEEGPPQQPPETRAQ

ULK2 (human) = ULK2 (human) (UniProt Q8IYT8)
VRK1 (human) = VRK1 (human) (UniProt Q99986)
Chain of VRK1 (human) (Q99986 whole entry, looked up): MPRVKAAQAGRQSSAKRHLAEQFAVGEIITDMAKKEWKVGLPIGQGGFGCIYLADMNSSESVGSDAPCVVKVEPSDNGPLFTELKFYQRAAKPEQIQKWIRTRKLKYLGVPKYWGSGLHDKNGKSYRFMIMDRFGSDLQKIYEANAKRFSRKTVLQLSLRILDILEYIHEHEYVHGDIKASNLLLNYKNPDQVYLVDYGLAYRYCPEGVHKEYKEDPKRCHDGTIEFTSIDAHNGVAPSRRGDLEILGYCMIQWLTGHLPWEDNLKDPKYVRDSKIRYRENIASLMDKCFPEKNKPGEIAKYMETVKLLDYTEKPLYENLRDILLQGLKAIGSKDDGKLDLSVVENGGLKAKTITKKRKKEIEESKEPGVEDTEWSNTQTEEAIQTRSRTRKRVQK

WEE1 (human) = WEE1 (human) (UniProt P30291)
Chain of WEE1 (human) (P30291 whole entry, looked up): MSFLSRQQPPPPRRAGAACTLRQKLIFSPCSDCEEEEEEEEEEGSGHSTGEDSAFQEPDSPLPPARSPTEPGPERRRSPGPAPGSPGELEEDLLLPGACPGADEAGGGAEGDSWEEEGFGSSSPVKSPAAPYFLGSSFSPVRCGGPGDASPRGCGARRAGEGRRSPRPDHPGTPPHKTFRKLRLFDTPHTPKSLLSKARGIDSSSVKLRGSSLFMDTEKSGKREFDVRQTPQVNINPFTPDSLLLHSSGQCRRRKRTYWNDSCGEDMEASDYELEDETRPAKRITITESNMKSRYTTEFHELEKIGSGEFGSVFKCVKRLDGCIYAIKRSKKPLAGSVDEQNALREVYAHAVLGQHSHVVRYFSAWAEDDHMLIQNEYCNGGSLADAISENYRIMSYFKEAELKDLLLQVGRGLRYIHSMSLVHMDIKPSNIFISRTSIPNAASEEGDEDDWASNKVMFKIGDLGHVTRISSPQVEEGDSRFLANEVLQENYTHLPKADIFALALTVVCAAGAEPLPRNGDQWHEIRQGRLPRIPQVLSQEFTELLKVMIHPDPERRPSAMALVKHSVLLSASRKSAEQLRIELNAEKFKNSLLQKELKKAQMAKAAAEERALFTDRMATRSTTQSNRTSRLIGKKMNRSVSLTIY

PKN2 (human) = PKN2 (human) (UniProt Q16513)

N#C/C(=C\c1ccc(O)c(O)c1)C(=O)NCc1ccccc1 gave a residual activity (AKT2 (human)) of 98.4%, a residual activity (ALK (human)) of 105% and a residual activity (BRSK1 (human)) of 104%. The residual activity (CDK5 CDK5R1 p35 (human)) was 99.8%, the residual activity (CDK6 CCND1 (human)) was 95.6% and the residual activity (CDK9 CCNT1 (human)) was 74.9%. The residual activity (CSNK1G1 (human)) was 102%, the residual activity (FES (human)) was 101% and the residual activity (FGFR1 (human)) was 92.8%. It also gave a residual activity [1] of 87.7%, a residual activity (GRK6 (human)) of 101% and a residual activity (GSG2 (human)) of 104%. It also gave a residual activity (GSK3A (human)) of 96.5%, a residual activity (IGF1R (human)) of 85.1% and a residual activity (LTK (human)) of 91.4%. It also gave a residual activity (MAP2K1 (human)) of 94%, a residual activity (MAP2K2 (human)) of 105% and a residual activity (MAP3K11 (human)) of 97%. The residual activity (MAPK13 (human)) was 101%, the residual activity (MST1R (human)) was 102% and the residual activity (NEK3 (human)) was 95.1%. The residual activity (NEK6 (human)) was 104%, the residual activity (NTRK2 (human)) was 94.5% and the residual activity (PIM2 (human)) was 97.1%. The residual activity (PIM3 (human)) was 95.8%, the residual activity (PRKCA (human)) was 99.1% and the residual activity (PRKD3 (human)) was 90.2%. For the same molecule, the residual activity (RPS6KA3 KD1 KD2 (human)) was 100%, the residual activity (RPS6KA5 KD2 (human)) was 102% and the residual activity (SIK2 (human)) was 99.7%. For the same molecule, the residual activity (STK16 (human)) was 99.1%, the residual activity (STK17A (human)) was 98.8% and the residual activity (STK25 (human)) was 101%. It also gave a residual activity (STK33 (human)) of 94.9%, a residual activity (STK4 (human)) of 95.9% and a residual activity (TAOK2 (human)) of 95.7%. The residual activity (TNK2 (human)) was 98.3%, the residual activity (TSSK1B (human)) was 90.2% and the residual activity (ULK2 (human)) was 106%. It also gave a residual activity (VRK1 (human)) of 97% and a residual activity (WEE1 (human)) of 89.9%.

For C[C@@H]1CCN(C(=O)CC#N)C[C@@H]1N(C)c1ncnc2[nH]ccc12, the residual activity (AKT2 (human)) was 98%, the residual activity (ALK (human)) was 107% and the residual activity (BRSK1 (human)) was 102%. The residual activity (CDK5 CDK5R1 p35 (human)) was 99.5%, the residual activity (CDK6 CCND1 (human)) was 96.5% and the residual activity (CDK9 CCNT1 (human)) was 100%. It also gave a residual activity (CSNK1G1 (human)) of 101%, a residual activity (FES (human)) of 104% and a residual activity (FGFR1 (human)) of 101%. For the same molecule, the residual activity [1] was 97.5%, the residual activity (GRK6 (human)) was 101% and the residual activity (GSG2 (human)) was 77.9%. It also gave a residual activity (GSK3A (human)) of 103%, a residual activity (IGF1R (human)) of 93.1% and a residual activity (MAP2K1 (human)) of 112%. For the same molecule, the residual activity (MAP2K2 (human)) was 117%, the residual activity (MAP3K11 (human)) was 104% and the residual activity (MST1R (human)) was 102%. For the same molecule, the residual activity (NEK3 (human)) was 94.5%, the residual activity (NEK6 (human)) was 83.2% and the residual activity (NTRK2 (human)) was 97.1%. The residual activity (PIM2 (human)) was 116%, the residual activity (PIM3 (human)) was 96.5% and the residual activity (PRKCA (human)) was 78.7%. For the same molecule, the residual activity (PRKD3 (human)) was 89.8%, the residual activity (RPS6KA3 KD1 KD2 (human)) was 97% and the residual activity (RPS6KA5 KD2 (human)) was 94.8%. For the same molecule, the residual activity (SIK2 (human)) was 89.2%, the residual activity (STK16 (human)) was 94.7% and the residual activity (STK17A (human)) was 106%. The residual activity (STK25 (human)) was 97.2%, the residual activity (STK33 (human)) was 97.8% and the residual activity (STK4 (human)) was 95.5%. The residual activity (TAOK2 (human)) was 100%, the residual activity (TNK2 (human)) was 87.1% and the residual activity (TSSK1B (human)) was 85.1%. The residual activity (ULK2 (human)) was 92%, the residual activity (VRK1 (human)) was 100% and the residual activity (WEE1 (human)) was 97.7%.

Work on COc1cc(Nc2c(C#N)cnc3cc(OCCCN4CCN(C)CC4)c(OC)cc23)c(Cl)cc1Cl yielded a residual activity (AKT2 (human)) of 104%, a residual activity (ALK (human)) of 66% and a residual activity (BRSK1 (human)) of 97.5%. It also gave a residual activity (CDK5 CDK5R1 p35 (human)) of 98.3%, a residual activity (CDK6 CCND1 (human)) of 99.4% and a residual activity (CDK9 CCNT1 (human)) of 87%. The residual activity (CSNK1G1 (human)) was 95.7%, the residual activity (FGFR1 (human)) was 64.4% and the residual activity [1] was 44.1%. The residual activity (GRK6 (human)) was 99.5%, the residual activity (GSG2 (human)) was 65.6% and the residual activity (GSK3A (human)) was 103%. It also gave a residual activity (IGF1R (human)) of 91.5%, a residual activity (LTK (human)) of 57.7% and a residual activity (MAP3K11 (human)) of 13.5%. For the same molecule, the residual activity (MAPK13 (human)) was 91.2%, the residual activity (NEK3 (human)) was 85.9% and the residual activity (NEK6 (human)) was 85.3%. It also gave a residual activity (NTRK2 (human)) of 69.2%, a residual activity (PIM2 (human)) of 111% and a residual activity (PIM3 (human)) of 97.7%. For the same molecule, the residual activity (PKN2 (human)) was 105%, the residual activity (PRKCA (human)) was 49.5% and the residual activity (PRKD3 (human)) was 42.2%. For the same molecule, the residual activity (RPS6KA3 KD1 KD2 (human)) was 80.1%, the residual activity (RPS6KA5 KD2 (human)) was 90.8% and the residual activity (SIK2 (human)) was 1.93%. It also gave a residual activity (STK16 (human)) of 85.1%, a residual activity (STK17A (human)) of 107% and a residual activity (STK25 (human)) of 10.1%. The residual activity (STK33 (human)) was 63.5%, the residual activity (STK4 (human)) was 7.4% and the residual activity (TAOK2 (human)) was 65.4%. It also gave a residual activity (TNK2 (human)) of 3.54%, a residual activity (TSSK1B (human)) of 79.2% and a residual activity (ULK2 (human)) of 92.2%. For the same molecule, the residual activity (VRK1 (human)) was 100% and the residual activity (WEE1 (human)) was 40.5%.
